Measured values published in ChEMBL document CHEMBL5465560, “Selectivity Literature for EUbOPEN Chemogenomic Library” (2024).

Columns and labels:
[1] = target: Ribosomal protein S6 kinase alpha-1 (Homo sapiens, UniProt Q15418); experiment: Selectivity interaction (KinomeScan (DiscoverX)) EUB0000229b RPS6KA1; conditions: at 10 µM
[2] = target: Proto-oncogene tyrosine-protein kinase ROS (Homo sapiens) (UniProt P08922); conditions: at 10 µM
[3] = target: Mitogen-activated protein kinase kinase kinase 10 (Homo sapiens) (UniProt Q02779); conditions: at 10 µM
[4] = target: cAMP-dependent protein kinase catalytic subunit alpha (Homo sapiens, UniProt P17612); experiment: Selectivity interaction (KinomeScan (DiscoverX)) EUB0000655a PRKACA; conditions: at 10 µM
[5] = target: Serine/threonine-protein kinase 24 (Homo sapiens) (UniProt Q9Y6E0); experiment: Selectivity interaction (SelectScreen profiling (Invitrogen)) EUB0000607a STK24; conditions: at 2 µM
[6] = target: T1, Mitogen-activated protein kinase kinase kinase 2 (Homo sapiens) (UniProt Q9Y2U5); experiment: Selectivity interaction (KinomeScan (DiscoverX)) EUB0000607a MAP3K2; conditions: at 10 µM
T1 sequence (whole entry): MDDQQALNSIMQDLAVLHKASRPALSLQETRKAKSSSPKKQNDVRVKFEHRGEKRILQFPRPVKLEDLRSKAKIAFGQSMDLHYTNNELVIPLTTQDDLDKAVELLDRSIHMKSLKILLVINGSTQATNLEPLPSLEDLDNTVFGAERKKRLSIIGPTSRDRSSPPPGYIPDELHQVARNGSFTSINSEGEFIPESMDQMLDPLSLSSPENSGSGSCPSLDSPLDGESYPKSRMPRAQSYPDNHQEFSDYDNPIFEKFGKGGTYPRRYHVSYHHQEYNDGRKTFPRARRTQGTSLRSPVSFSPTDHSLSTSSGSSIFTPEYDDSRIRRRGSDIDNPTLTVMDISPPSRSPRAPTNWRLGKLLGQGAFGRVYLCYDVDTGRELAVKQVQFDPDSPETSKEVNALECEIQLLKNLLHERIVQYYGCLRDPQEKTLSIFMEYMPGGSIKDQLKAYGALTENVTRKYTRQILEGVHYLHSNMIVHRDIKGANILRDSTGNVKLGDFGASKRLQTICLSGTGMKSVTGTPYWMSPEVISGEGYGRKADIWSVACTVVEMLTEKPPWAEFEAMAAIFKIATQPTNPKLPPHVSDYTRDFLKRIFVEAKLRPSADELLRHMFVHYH

[7] = target: T2, Non-receptor tyrosine-protein kinase TNK1 (Homo sapiens) (UniProt Q13470); experiment: Selectivity interaction (Kinase panel (Carna Biosciences)) EUB0001542aTs TNK1; conditions: at 1 µM
T2 sequence (whole entry): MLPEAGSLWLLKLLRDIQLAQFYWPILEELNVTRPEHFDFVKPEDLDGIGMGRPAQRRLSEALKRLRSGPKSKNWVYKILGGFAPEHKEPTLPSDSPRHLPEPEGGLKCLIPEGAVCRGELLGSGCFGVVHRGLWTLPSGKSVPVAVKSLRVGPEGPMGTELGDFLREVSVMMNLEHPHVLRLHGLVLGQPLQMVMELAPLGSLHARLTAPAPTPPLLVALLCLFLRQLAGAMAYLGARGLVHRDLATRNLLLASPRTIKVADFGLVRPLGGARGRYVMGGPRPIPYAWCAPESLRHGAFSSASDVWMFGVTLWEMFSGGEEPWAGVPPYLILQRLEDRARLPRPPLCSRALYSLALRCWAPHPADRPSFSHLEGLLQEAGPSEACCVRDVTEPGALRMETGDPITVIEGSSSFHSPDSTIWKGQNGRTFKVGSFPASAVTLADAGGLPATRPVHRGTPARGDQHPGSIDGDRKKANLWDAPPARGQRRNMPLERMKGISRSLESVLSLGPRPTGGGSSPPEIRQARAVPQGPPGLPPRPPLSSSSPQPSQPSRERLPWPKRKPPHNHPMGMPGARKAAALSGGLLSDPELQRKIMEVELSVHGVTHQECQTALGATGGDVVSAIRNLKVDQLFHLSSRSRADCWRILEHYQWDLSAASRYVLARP

[8] = target: Macrophage colony-stimulating factor 1 receptor (Homo sapiens) (UniProt P07333); experiment: Selectivity interaction (Kinase panel (Carna Biosciences)) EUB0001542aTs CSF1R; conditions: at 1 µM
[9] = target: Homeodomain-interacting protein kinase 2 (Homo sapiens, UniProt Q9H2X6); experiment: Selectivity interaction (Kinase panel (Z-LYTE Assay)) EUB0001632a HIPK2; conditions: at 10 µM
[10] = target: T3, Protein kinase C zeta type (Homo sapiens) (UniProt Q05513); experiment: Selectivity interaction (ProQinase) EUB0000171b PRKCZ; conditions: at 1 µM
T3 sequence (whole entry): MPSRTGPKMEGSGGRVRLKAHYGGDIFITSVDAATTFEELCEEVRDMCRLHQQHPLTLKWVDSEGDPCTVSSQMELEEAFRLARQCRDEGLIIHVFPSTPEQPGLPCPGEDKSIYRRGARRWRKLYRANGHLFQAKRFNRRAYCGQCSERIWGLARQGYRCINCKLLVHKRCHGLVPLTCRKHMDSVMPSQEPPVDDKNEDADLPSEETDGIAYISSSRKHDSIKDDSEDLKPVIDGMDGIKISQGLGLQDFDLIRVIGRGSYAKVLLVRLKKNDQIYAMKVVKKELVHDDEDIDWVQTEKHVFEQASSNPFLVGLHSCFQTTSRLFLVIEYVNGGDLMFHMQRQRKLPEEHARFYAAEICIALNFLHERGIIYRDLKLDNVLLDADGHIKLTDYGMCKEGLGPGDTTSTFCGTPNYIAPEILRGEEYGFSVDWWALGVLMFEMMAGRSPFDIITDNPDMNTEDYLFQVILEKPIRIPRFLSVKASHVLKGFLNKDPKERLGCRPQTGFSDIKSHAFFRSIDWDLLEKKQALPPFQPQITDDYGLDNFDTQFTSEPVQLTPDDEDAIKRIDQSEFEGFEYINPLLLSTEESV

Chain of Serine/threonine-protein kinase 24 (Homo sapiens) (Q9Y6E0 whole entry, looked up): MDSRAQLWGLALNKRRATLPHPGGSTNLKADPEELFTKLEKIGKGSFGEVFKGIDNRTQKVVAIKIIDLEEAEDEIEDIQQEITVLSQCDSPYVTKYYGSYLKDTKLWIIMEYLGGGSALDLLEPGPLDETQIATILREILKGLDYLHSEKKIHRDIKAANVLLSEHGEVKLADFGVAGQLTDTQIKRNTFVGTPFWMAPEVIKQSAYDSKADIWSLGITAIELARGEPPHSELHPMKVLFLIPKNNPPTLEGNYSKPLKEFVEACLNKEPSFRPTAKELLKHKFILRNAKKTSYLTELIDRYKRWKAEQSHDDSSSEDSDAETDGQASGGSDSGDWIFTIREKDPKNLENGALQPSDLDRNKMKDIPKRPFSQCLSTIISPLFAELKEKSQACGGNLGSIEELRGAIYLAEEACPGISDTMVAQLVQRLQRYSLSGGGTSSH
Chain of Ribosomal protein S6 kinase alpha-1 (Q15418 whole entry): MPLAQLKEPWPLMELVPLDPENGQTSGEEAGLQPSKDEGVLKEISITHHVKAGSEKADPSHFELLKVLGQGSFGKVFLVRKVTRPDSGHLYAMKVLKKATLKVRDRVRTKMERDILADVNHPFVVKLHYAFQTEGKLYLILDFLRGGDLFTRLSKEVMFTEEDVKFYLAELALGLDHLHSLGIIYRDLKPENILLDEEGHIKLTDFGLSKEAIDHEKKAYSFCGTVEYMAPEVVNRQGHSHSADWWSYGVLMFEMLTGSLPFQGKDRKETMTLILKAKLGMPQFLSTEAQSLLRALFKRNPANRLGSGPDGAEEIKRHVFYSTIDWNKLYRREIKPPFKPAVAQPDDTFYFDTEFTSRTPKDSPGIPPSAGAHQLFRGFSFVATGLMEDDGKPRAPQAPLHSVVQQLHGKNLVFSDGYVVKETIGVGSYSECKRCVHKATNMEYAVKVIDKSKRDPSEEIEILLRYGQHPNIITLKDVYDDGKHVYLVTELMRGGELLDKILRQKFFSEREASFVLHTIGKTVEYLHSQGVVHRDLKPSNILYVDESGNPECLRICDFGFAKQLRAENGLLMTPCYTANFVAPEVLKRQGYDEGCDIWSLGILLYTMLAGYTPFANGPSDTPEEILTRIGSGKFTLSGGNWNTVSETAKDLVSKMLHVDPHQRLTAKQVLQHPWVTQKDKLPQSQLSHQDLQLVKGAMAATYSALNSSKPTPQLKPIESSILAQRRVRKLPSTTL
Chain of Mitogen-activated protein kinase kinase kinase 10 (Homo sapiens) (Q02779 whole entry, looked up): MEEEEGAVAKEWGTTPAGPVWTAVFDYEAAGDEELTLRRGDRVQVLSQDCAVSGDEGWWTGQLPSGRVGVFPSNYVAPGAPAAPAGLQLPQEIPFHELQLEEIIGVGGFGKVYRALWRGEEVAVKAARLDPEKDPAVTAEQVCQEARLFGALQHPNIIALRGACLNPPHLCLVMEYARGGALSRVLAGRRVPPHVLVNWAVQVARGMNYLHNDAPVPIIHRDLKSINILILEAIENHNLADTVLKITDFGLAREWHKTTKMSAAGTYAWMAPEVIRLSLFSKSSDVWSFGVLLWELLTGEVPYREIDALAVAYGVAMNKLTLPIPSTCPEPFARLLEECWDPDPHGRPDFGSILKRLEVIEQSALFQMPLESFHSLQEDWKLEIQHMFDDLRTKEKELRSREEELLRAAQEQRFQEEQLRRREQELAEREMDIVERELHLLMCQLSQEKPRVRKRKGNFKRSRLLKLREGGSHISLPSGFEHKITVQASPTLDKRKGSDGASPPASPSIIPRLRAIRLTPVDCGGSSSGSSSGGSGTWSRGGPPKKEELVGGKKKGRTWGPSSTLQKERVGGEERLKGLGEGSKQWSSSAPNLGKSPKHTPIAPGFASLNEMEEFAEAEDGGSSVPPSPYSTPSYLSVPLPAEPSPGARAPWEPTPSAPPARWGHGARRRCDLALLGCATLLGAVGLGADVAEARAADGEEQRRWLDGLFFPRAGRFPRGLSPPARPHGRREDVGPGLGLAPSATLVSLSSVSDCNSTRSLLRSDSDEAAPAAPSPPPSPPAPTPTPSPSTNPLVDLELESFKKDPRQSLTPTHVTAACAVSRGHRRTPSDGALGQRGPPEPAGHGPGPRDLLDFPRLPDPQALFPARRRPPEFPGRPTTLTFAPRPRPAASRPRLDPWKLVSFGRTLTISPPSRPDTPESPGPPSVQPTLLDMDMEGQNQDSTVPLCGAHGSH
Chain of Homeodomain-interacting protein kinase 2 (Q9H2X6 whole entry, looked up): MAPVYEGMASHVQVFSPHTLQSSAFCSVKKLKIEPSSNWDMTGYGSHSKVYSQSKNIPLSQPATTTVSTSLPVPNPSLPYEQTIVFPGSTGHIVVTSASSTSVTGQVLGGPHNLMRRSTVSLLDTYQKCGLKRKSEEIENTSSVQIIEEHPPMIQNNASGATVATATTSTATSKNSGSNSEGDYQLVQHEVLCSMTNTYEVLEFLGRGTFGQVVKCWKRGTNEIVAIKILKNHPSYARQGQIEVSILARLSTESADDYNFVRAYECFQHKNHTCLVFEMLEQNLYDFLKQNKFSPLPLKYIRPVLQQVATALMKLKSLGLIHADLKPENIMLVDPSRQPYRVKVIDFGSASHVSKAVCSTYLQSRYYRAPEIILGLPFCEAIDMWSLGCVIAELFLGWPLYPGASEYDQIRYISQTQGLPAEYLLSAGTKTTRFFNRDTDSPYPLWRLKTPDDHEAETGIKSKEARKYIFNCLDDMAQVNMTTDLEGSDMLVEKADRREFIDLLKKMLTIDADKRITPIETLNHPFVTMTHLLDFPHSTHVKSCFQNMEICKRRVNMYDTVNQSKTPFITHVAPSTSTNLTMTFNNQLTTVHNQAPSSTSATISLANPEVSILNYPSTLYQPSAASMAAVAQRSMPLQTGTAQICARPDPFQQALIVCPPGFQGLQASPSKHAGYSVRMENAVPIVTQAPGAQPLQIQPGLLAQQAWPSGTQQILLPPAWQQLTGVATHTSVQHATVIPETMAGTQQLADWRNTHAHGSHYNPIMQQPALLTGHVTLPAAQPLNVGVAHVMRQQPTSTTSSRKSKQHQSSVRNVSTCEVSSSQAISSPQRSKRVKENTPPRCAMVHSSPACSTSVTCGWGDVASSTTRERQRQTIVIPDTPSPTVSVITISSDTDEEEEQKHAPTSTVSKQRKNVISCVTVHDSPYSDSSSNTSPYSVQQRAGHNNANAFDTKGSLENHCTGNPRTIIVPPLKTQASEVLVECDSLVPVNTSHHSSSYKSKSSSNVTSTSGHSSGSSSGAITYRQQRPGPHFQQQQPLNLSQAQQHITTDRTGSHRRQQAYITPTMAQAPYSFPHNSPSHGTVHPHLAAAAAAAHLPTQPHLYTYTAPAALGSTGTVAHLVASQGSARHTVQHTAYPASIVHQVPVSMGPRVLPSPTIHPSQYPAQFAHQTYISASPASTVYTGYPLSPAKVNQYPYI
Chain of Macrophage colony-stimulating factor 1 receptor (Homo sapiens) (P07333 whole entry): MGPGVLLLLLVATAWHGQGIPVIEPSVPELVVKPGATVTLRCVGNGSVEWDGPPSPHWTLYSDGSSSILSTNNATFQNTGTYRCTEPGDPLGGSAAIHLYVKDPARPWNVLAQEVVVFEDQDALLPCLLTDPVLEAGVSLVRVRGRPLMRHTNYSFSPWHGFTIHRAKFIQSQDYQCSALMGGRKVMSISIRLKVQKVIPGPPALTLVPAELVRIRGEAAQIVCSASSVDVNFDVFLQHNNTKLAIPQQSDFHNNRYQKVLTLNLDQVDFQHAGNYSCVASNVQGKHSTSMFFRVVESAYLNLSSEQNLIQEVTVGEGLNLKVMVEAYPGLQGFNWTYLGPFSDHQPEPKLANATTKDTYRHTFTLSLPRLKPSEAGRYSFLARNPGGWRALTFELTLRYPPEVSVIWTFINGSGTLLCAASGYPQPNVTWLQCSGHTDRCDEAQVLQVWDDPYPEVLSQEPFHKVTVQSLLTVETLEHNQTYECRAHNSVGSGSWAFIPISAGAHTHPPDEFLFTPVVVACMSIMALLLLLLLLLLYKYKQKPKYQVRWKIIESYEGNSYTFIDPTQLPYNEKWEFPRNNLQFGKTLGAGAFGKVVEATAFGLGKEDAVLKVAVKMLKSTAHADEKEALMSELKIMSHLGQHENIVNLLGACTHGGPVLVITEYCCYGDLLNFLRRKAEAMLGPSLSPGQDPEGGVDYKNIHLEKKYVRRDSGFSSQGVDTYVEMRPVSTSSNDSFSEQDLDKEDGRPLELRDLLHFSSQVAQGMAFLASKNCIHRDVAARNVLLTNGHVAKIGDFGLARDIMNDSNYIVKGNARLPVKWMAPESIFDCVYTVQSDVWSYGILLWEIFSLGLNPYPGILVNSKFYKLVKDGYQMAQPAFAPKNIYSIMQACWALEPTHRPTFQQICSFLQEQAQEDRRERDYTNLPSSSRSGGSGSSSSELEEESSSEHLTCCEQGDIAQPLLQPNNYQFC

## COc1cc(N(C)c2ccnc3ccc(C(F)(F)F)cc23)cc(OC)c1OC
[1]
  % binding: 100%

## Cc1cc([C@@H](C)Nc2ccccc2C(=O)O)c2nc(N3CCOCC3)cc(=O)n2c1 [AZD-6482]
[2]
  % of control: 100%
[3]
  % of control: 96%

## CN(C)CCOc1ccc(-c2nc(-c3ccncc3)c(-c3ccc4c(c3)CC/C4=N\O)[nH]2)cc1
[4]
  % of control: 67%

## CNC(=O)Nc1ccc(-c2nc(N3CC4CCC(C3)O4)c3cnn(C4CCC5(CC4)OCCO5)c3n2)cc1
[5]
  % of inhibition: -1%
[6]
  % of control: 95%

## Cn1cc(Nc2nccc(N3CC4CCC(C3)N4C(=O)[C@@H]3CC3(F)F)n2)cn1
[7]
  % of inhibition: 94%
[8]
  % of inhibition: 59%

## Cn1cc(-n2cnc3c(NCc4nc5cc(Cl)c(Cl)cc5[nH]4)nc(N4CCOCC4)nc32)cn1
[9]
  % of control: 5.72%

## C=CC(=O)Nc1cccc(C(=O)Nc2ccc(Nc3cc(-c4[nH]c(SC)nc4C)ccn3)cc2)c1
[10]
  % of control: 90%
